Measured values reported in patent US20050032187A1, “Novel peptide-forming enzyme, microbe producing the enzyme and method for producing peptide using them” (Ajinomoto Co., Inc., priority 2003, published 2005).
Residues, ends and D or L forms follow the SMILES beside them.

System: Empedobacter brevis strain FERM BP-8113 microbial cells
Assay: Production of peptide using microbial cells of Empedobacter brevis
Assay type: cell-based
Conditions: 1 mL of 100 g/L cell suspension + 1 mL buffer with 200 mM carboxy component (HCl salt) and 400 mM amino acid, 10 mM EDTA, pH 9.0, 18° C., 2 hours
Protocol: Although the following provides a more detailed explanation of the present invention through its examples, the present invention is not limited to these examples. In addition to confirmation by ninhydrin coloring of thin-film chromatograms (qualitative), quantitative determinations were made by the following high-performance liquid chromatography in order to assay products. Column: […] ODS-2 (manufactured by GL Science, Inc.), eluate: aqueous phosphate solution containing 5.0 mM sodium 1-octanesulfonate (pH 2.1): methanol=100: 15 to 50, flow rate: 1.0 mL/min, detection: 210 nanometers (hereinafter, “nm”). A 50 mL medium (pH 6.2) containing 5 grams (hereinafter, “g”) of glucose, 5 g of ammonium sulfate, 1 g of monopotassium phosphate, 3 g of dipotassium phosphate, 0.5 g of magnesium sulfate, 10 g of yeast extract and 10 g of peptone in 1 liter (hereinafter, “L”) was transferred to a 500 mL Sakaguchi flask and sterilized at 115° C. for 15 minutes. This medium was then inoculated with one loopful of the culture broth of Empedobacter brevis strain FERM BP-8113 (Depositary institution: National Institute for Advanced Industrial Science and Technology, International Patent Organism Depositary, Address of depositary institution: Chuo Dai-6,1-1 Higashi 1-Chome, Tsukuba-shi, Ibaraki-ken, Japan, International deposit transfer date: Jul. 8, 2002) that had been cultured at 30° C. for 16 hours in the same medium, followed by shake culturing at 30° C. for 16 hours and 120 strokes/min.

Molecule	Formed peptide [mM]
CC(C)C[C@H](NC(=O)[C@H](C)N)C(=O)O [L-Ala-L-Leu] (H-Ala-Leu-OH)	38.2
C[C@H](N)C(=O)N[C@@H](Cc1cnc[nH]1)C(=O)O [L-Ala-L-His] (H-Ala-His-OH)	52.1
C[C@H](N)C(=O)N[C@@H](CO)C(=O)O [L-Ala-L-Ser] (H-Ala-Ser-OH)	51.3
C[C@H](N)C(=O)N[C@@H](CCC(N)=O)C(=O)O [L-Ala-L-Gln, L-alanyl-L-glutamine] (H-Ala-Gln-OH)	68.0
C[C@H](N)C(=O)N[C@@H](CCCN=C(N)N)C(=O)O [L-Ala-L-Arg] (H-Ala-Arg-OH)	72.1
CSCC[C@H](NC(=O)[C@@H](N)C(C)C)C(=O)O [L-Val-L-Met] (H-Val-Met-OH)	10.5
NCC(=O)N[C@@H](Cc1cnc[nH]1)C(=O)O [Gly-L-His] (H-Gly-His-OH)	22.1
CSCC[C@H](NC(=O)[C@H](C)N)C(=O)O [L-Ala-L-Met] (H-Ala-Met-OH)	68.3
CSCC[C@H](N)C(=O)N[C@@H](Cc1ccccc1)C(=O)O [L-Met-L-Phe] (H-Met-Phe-OH)	28.5
CC[C@H](C)[C@H](N)C(=O)N[C@@H](CCSC)C(=O)O [L-Ile-L-Met] (H-Ile-Met-OH)	8.3
N[C@@H](CO)C(=O)N[C@@H](CO)C(=O)O [L-Ser-L-Ser] (H-Ser-Ser-OH)	29.0
CC(C)C[C@H](NC(=O)[C@@H](N)[C@@H](C)O)C(=O)O [L-Thr-L-Leu] (H-Thr-Leu-OH)	23.0
C[C@H](N)C(=O)N[C@@H](Cc1ccccc1)C(=O)O [L-Ala-L-Phe]	62.4

System: Sphingobacterium sp. strain FERM BP-8124 microbial cells
Assay: Production of L-alanyl-L-glutamine using microbial cells of Sphingobacterium sp.
Assay type: cell-based
Conditions: 0.1 mL of 100 g/L cell suspension + 0.1 mL buffer with 200 mM L-alanyl methyl ester hydrochloride and 400 mM L-glutamine, pH 9.0, 25° C., 120 minutes
Protocol: A 50 ml medium (pH 7.0) containing 5 g of glucose, 5 g of ammonium sulfate, 1 g of monopotassium phosphate, 3 g of dipotassium phosphate, 0.5 g of magnesium sulfate, 10 g of yeast extract and 10 g of peptone in 1 L was transferred to a 500 mL Sakaguchi flask and sterilized at 115° C. for 15 minutes for culturing Sphingobacterium sp. strain FERM BP-8124 (Depositary institution: National Institute for Advanced Industrial Science and Technology, International Patent Organism Depositary, Address of depositary institution: Chuo Dai-6,1-1 Higashi 1-Chome, Tsukuba-shi, Ibaraki-ken, Japan, International deposit date: Jul. 22, 2002). This medium was then inoculated with one loopful of Sphingobacterium sp. strain FERM BP-8124 (Depositary institution: National Institute for Advanced Industrial Science and Technology, International Patent Organism Depositary, Address of depositary institution: Chuo Dai-6,1-1 Higashi 1-Chome, Tsukuba-shi, Ibaraki-ken, Japan, International deposit date: Jul. 22, 2002) cultured at 30° C. for 24 hours in a slant agar medium (agar: 20 g/L, pH 7.0) containing 5 g of glucose, 10 g of yeast extract, 10 g of peptone and 5 g of NaCl in 1 L, followed by shake culturing at 30° C. for 20 hours and 120 strokes/minute. A 1 ml aliquot of this culture broth was then added to the aforementioned medium (50 ml/500 mL Sakaguchi flask) and cultured at 30° C. for 18 hours. […]

Molecule	amount of L-alanyl-L-glutamine produced [mM]
C[C@H](N)C(=O)N[C@@H](CCC(N)=O)C(=O)O [L-Ala-L-Gln, L-alanyl-L-glutamine] (H-Ala-Gln-OH)	62

System: enzyme (SP-Sepharose HP fraction) derived from Sphingobacterium sp. strain FERM BP-8124
Assay: not given
Assay type: biochemical
Conditions: Table 15-2; carboxy 100 mM, L-Gln 150 mM, 0.33 units, pH 9.0, 25° C., 1.5 hours; 0.1% Tween-80 with L-Tyr-OMe
Protocol: The following procedure after centrifugal separation was carried out either on ice or at 4° C. Sphingobacterium sp. strain FERM BP-8124 (Depositary institution: National Institute for Advanced Industrial Science and Technology, International Patent Organism Depositary, Address of depositary institution: Chuo Dai-6,1-1 Higashi 1-Chome, Tsukuba-shi, Ibaraki-ken, Japan, International deposit date: Jul. 22, 2002) was cultured in the same manner as Example 21, and the microbial cells were collected by centrifugal separation (10,000 rpm, 15 minutes). After washing 2 g of microbial cells with 20 mM Tris-HCl buffer (pH 7.6), they were suspended in 8 ml of the same buffer and subjected to ultrasonic crushing treatment for 45 minutes at 195 W. This ultrasonic crushing liquid was then centrifuged (10,000 rpm, 30 minutes) to remove the crushed cell fragments and obtain an ultrasonic crushing liquid supernatant. This ultrasonic crushing liquid supernatant was dialyzed overnight against 20 mM Tris-HCl buffer (pH 7.6) followed by removal of the insoluble fraction by ultracentrifugation (50,000 rpm, 30 minutes) to obtain a soluble fraction in the form of the supernatant liquid. The resulting soluble fraction was applied to a Q-Sepharose HP column (manufactured by Amersham) pre-equilibrated with Tris-HCl buffer (pH 7.6), and the active fraction was collected from the non-adsorbed fraction. This active fraction was dialyzed overnight against 20 mM acetate buffer (pH 5.0) followed by removal of the insoluble fraction by centrifugal separation (10,000 rpm, 30 minutes) to obtain a dialyzed fraction in the form of the supernatant liquid. This dialyzed fraction was then applied to an SP-Sepharose HP column (manufactured by Amersham) pre-equilibrated with 20 mM acetate buffer (pH 5.0) to obtain the active fraction in which enzyme was eluted at a linear concentration gradient of the same buffer containing 0 tol M NaCl.
Substrate specificity was examined for enzyme derived from Sphingobacterium sp. strain FERM BP-8124 (Depositary institution: National Institute for Advanced Industrial Science and Technology, International Patent Organism Depositary, Address of depositary institution: Central. 6, 1-1-1 Higashi, Tsukuba City, Ibaraki Prefecture, Japan, International deposit date: Jul. 22, 2002). 100 μl of 100 mM borate buffer (pH 9.0) containing the various carboxy components at a final concentration of 100 mM and the various amine components at a final concentration of 150 mM shown in Tables 15-1 to 15-4, the SP-Sepharose HP fraction enzyme purified in Example 22 (addition of 0.33 units in the reaction liquid) and 10 mM EDTA were allowed to react at 25° C. for 1.5 hours.
In addition, hydrochlorides were used for all carboxy components. […]

Produced peptide [mM]	Molecule
6.4	CC[C@H](C)[C@H](N)C(=O)N[C@@H](CCC(N)=O)C(=O)O [L-Ile-L-Gln] (H-Ile-Gln-OH)
1.8	NC(=O)CC[C@H](NC(=O)[C@@H]1CCCN1)C(=O)O [L-Pro-L-Gln] (H-Pro-Gln-OH)
0.05	NC(=O)CC[C@H](NC(=O)[C@@H](N)CC(=O)O)C(=O)O [α-L-Asp-L-Gln] (H-Asp-Gln-OH)
0.6	NC(=O)CC[C@H](NC(=O)[C@@H](N)Cc1ccc(O)cc1)C(=O)O [L-Tyr-L-Gln] (H-Tyr-Gln-OH)
0.1	NC(=O)CC[C@H](NC(=O)[C@@H](N)CCC(N)=O)C(=O)O [L-Gln-L-Gln] (H-Gln-Gln-OH)
32.6	CSCC[C@H](N)C(=O)N[C@@H](CCC(N)=O)C(=O)O [L-Met-L-Gln] (H-Met-Gln-OH)
36.1	C[C@@H](O)[C@H](N)C(=O)N[C@@H](CCC(N)=O)C(=O)O [L-Thr-L-Gln] (H-Thr-Gln-OH)
17.2	NC(=O)CC[C@H](NC(=O)[C@@H](N)CCCN=C(N)N)C(=O)O [L-Arg-L-Gln] (H-Arg-Gln-OH)
8.2	CC(C)[C@H](N)C(=O)N[C@@H](CCC(N)=O)C(=O)O [L-Val-L-Gln] (H-Val-Gln-OH)
61.1	NCC(=O)N[C@@H](CCC(N)=O)C(=O)O [Gly-L-Gln] (H-Gly-Gln-OH)
0.8	NC(=O)CC[C@H](NC(=O)[C@@H](N)Cc1ccccc1)C(=O)O [L-Phe-L-Gln]
12.9	NC(=O)CC[C@H](NC(=O)[C@@H](N)CO)C(=O)O [L-Ser-L-Gln] (H-Ser-Gln-OH)

System: not listed separately
Assay: Comparison of ability to catalyze peptide production with known enzymes
Conditions: 100 mM L-alanine methyl ester, 200 mM L-glutamine, pH 9.0, 25° C.; amount of enzyme added as in Table 14

L-Ala-L-Gln production rate (mM/mm)	Molecule
0.0096	Ficin
0.0100	Chymopapain: thiol endopeptidase described in EP 359399B1, purified enzyme manufactured by Sigma
0.0062	Bromelain
0.0106	Papain: thiol endopeptidase described in EP 359399B1, purified enzyme manufactured by Sigma (protein, UniProt P00784 134-345, looked up) Papain: IPEYVDWRQKGAVTPVKNQGSCGSCWAFSAVVTIEGIIKIRTGNLNEYSEQELLDCDRRSYGCNGGYPWSALQLVAQYGIHYRNTYPYEGVQRYCRSREKGPYAAKTDGVRQVQPYNEGALLYSIANQPVSVVLEAAGKDFQLYRGGIFVGPCGNKVDHAVAAVGYGPNYILIKNSWGTGWGENGYIRIKRGTGNSYGVCGLYTSSFYPVKN
0.0257	Carboxypeptidase Y: known enzyme described in EP 278787A1, purified enzyme manufactured by Sigma (protein, UniProt P00729 112-532, looked up) Carboxypeptidase Y: KIKDPKILGIDPNVTQYTGYLDVEDEDKHFFFWTFESRNDPAKDPVILWLNGGPGCSSLTGLFFELGPSSIGPDLKPIGNPYSWNSNATVIFLDQPVNVGFSYSGSSGVSNTVAAGKDVYNFLELFFDQFPEYVNKGQDFHIAGESYAGHYIPVFASEILSHKDRNFNLTSVLIGNGLTDPLTQYNYYEPMACGEGGEPSVLPSEECSAMEDSLERCLGLIESCYDSQSVWSCVPATIYCNNAQLAPYQRTGRNVYDIRKDCEGGNLCYPTLQDIDDYLNQDYVKEAVGAEVDHYESCNFDINRNFLFAGDWMKPYHTAVTDLLNQDLPILVYAGDKDFICNWLGNKAWTDVLPWKYDEEFASQKVRNWTASITDEVAGEVKSYKHFTYLRVFNGGHMVPFDVPENALSMVNEWIHGGFSL
